We go through 6 molecules from patent US7291611B2, “Benzimidazolidinone derivatives as muscarinic agents” (ACADIA Pharmaceuticals Inc., priority 2001, dated 2007).

The target in one data set is T1, M1 muscarinic receptor (Homo sapiens, UniProt P11229).
T1 construct: expressed in transfected cells; host or cells: NIH-3T3 cells (ATCC CRL 1658)
T1 sequence (P11229 1-460): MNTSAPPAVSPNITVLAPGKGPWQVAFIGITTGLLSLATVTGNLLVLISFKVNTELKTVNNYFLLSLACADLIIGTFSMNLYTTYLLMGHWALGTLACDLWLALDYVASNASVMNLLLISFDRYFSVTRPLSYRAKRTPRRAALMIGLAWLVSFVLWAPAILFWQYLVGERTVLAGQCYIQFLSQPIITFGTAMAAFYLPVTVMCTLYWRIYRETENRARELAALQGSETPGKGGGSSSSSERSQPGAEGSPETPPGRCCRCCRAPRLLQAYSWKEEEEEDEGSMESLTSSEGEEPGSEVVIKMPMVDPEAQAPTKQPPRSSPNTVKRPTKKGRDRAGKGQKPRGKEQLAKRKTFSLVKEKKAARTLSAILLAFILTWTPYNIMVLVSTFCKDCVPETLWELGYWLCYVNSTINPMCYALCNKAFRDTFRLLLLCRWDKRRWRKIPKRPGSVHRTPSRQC
As to the kind of experiment: R-SAT functional assay, muscarinic M1 receptor. Type of data set: cell-based. The settings on record: for Emax: NIH3T3, relative to maximum response to carbachol, read-out: M1 % Efficacy; for Emax / EC50: R-SAT, transfected NIH-3T3 cells; for EC50: read-out: M1 pEC50 (converted). On the procedure: (§1) The M1 and M4 muscarinic receptor subtypes were cloned substantially as described by Bonner et al., (1987) Science […] p. 527 and Bonner et al, (1988) Neuron 1, p. 403. R-SAT assays were carried out substantially as described in U.S. Pat. No. 5,707,798 and by Braüner-Osbome, H. B. and Brann, M. R. (1995), Eur. J. Pharmacol. 295:93-102. NIH-3T3 cells (available from the American Type Culture Collection as ATCC CRL 1658) were transfected with plasmid DNA encoding the m1 and m4 receptors and plasmid DNA encoding β-galactosidase. Transfected cells were grown in the presence of between 1 nM and 40 μM of the test compound for 5 days. On day 5, the cells were lysed using 0.5% nonidet-P and β-galactosidase expression was quantified using the chromogenic substrate o-nitrophenyl-p-D-galactoside (ONGP).
(§2) Data were normalized relative to the maximum response of the cells to the muscarinic agonist carbachol, and the following equation was fitted to the data: response=minimum+(maximum−minimum)/(1+([ligand]/EC50)) % Efficacy was defined as (maximum−minimum)/(maximum response of cells to carbachol). pEC50=−log (EC50). Where data gave a bell-shaped curve, “maximum” was defined as the highest observed response.

Another data set deals with T2, M4 muscarinic receptor (Homo sapiens, UniProt P08173).
T2 construct: expressed in transfected cells; host or cells: NIH-3T3 cells (ATCC CRL 1658)
T2 sequence (P08173 1-479): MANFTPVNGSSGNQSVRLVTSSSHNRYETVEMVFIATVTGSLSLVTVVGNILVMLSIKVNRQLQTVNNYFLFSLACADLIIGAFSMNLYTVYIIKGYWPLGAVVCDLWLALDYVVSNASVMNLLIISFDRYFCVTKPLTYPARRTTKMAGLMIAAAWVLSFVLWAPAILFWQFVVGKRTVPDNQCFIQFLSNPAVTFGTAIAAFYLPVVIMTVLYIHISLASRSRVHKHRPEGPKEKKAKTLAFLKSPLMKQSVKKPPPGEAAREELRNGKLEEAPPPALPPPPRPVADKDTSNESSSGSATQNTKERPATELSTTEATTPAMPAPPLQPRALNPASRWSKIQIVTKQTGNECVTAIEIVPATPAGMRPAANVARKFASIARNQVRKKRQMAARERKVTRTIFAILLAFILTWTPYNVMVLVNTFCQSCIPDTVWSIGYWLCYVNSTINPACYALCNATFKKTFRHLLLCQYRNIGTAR
As to the kind of experiment: R-SAT functional assay, muscarinic M4 receptor. Type of data set: cell-based. Particulars: for Emax: NIH3T3, relative to maximum response to carbachol, read-out: M4 % Efficacy. As for the experimental part: as §1, §2

Data set [1] concerns the target T3, human dopamine D2 receptor (Homo sapiens, UniProt P14416).
T3 construct: expressed in transfected cells; host or cells: tSA cells
The experiment in a line: [3H]-Spiperone radioligand binding to D2 receptor membranes. The settings on record: tSA cell membranes, 150 pM [3H]-Spiperone; read-out: D2 [3H]Spiperone pIC50 (converted). On the procedure: The D2 dopamine receptor subtype was cloned substantially as described by Stormann, Gdula, Weiner and Brann, 1990 [Mol Pharmacol 37, 1-6]. Cell membranes expressing the D2 receptor were prepared by transfecting tSA cells (Chahine, M., Bennet, P. B., George, A. L., Horn, R. (1994) Pfluegers Arch. 427, 136-142) with 10 μg plasmid DNA encoding the human dopamine D2 receptor and 40 μl Superfect (Qiagen). The cells were harvested 48 hours and transfection and membranes were prepared by homogenizing the cells using a Polytron harvester in 20 mM Hepes, 10 mM EDTA, pH 7.4. The homogenate was centrifuged for 30 minutes at 37,000 g. The pellet was homogenized again in 60 ml 20 mM Hepes, 5 mM EDTA. The homogenate was centrifuged for 30 minutes at 37,000 g. The supernatant was discarded. The pellet was homogenized again in 10 ml 20 mM Hepes, 1 mM EDTA. The resultant membranes were frozen at −80° C.
The membranes were combined with 150 pM [^3H]-Spiperone (Amersham-Pharmacia, 107 Ci/mmol) and ligand concentrations between 1 nM and 10 μM, or haloperidol concentrations between 0.1 nM and 1 μM in 460 μl 20 mM Hepes, 1 mM EDTA, 0.1% (w/v) bovine serum albumin. Nonspecific binding was defined as binding in the presence of 1 μM haloperidol. The membranes were incubated for 4 hours at 37° C., and then filtered onto Packard GFB Filterplates using a Packard harvester. The membranes were dried and 50 μl Microscint (Packard) was added to each well. The amount of bound radioligand was quantified using a Packard Topcount scintillation counter.
Data were normalized relative to the maximum inhibition of [^3H]-Spiperone binding by 1 μM haloperidol, and the following equation was fitted to the data: % inhibition=minimum+(maximum−minimum)/(1+([ligand]/[IC50])) % inhibition was defined as (maximum−minimum)/(maximum response of cells to haloperidol). pIC50=−log (IC50). NT=not tested. Results

Data set [2] relates to mice. The experiment in a line: Spontaneous locomotor activity in mice. Type of data set: in vivo. The settings on record: 10 mg/kg i.p., mice (FIG. 1). On the procedure: (§3) Male Non-Swiss Albino mice (Harlan Sprague-Dawley) were housed (4 mice/cage) in rooms with temperature and humidity controlled and water and food (Harlan Teklad) freely available. Mice were kept on a 12-hr light:dark cycle.
(§4) Plastic 20×20×30 cm activity cages were equipped with photocell beams (AccuScan Instruments). For spontaneous activity, 61KS19 (1, 3 and 10 mg/kg) was administered alone i.p. 30 min before the session. For hyperactivity experiments, mice were treated with 0.3 mg/kg dizocilpine, 3.0 mg/kg d-amphetamine or 3.0 mg/kg scopolamine i.p. 15 min before the session (15 min after 61KS19). Locomotor data were collected during a 15 min session without habituation in a lit room. Each dose combination was tested in a separate group of animals (n=8). Distance traveled (cm) was calculated and averaged followed by ANOVA and post-hoc Dunnett's t-test comparisons.

Data set [3] has as its system mice. As to the kind of experiment: Amphetamine-induced hyperactivity in mice. The data set is classed as in vivo. The settings on record: 3 and 10 mg/kg i.p., mice (FIG. 2). On the procedure: as §3, §4
In data set [4] the test system is mice. As to the kind of experiment: Scopolamine-induced hyperactivity in mice. Type of data set: in vivo. Particulars: 1, 3 and 10 mg/kg i.p., mice (FIG. 3). As for the experimental part:
as §3, §4

In data set [5] the test system is mice. As to the kind of experiment: MK-801 (dizocilpine)-induced hyperactivity in mice. The settings on record: 10 mg/kg i.p., mice (FIG. 4). Type of data set: in vivo. As for the experimental part:
as §3, §4

Data set [6] deals with mice. The experiment in a line: Catalepsy (rod test) in mice. Type of data set: in vivo. The settings on record: mice (FIG. 5). As for the experimental part: as §3
A custom-built 8-mm rod that is raised 3.5 cm from the lab benchtop was used. 61KS19 (10 mg/kg) or haloperidol (1 mg/kg) were administered i.p. 60 min before the start of the session. The forepaws of each animal is placed on the rod and the time to step down is measured. If the animal steps off immediately, another attempt is made until the animal stays on for more than 10 sec or 10 attempts have been made. A maximum of 2 min is allowed at which time the animal is taken away from the rod and returned to the homecage. Each dose or dose combination was tested in a separate group of animals (n=6). Averages and standard errors were calculated and compared using an ANOVA and post-hoc Dunnett's t-tests.

In a further data set the test system is dopamine receptors. Particulars: Shannon et al.; cited from earlier work.
For data set [7] the following is noted: human, in vivo; cited from earlier work.
[8] abbreviates: R-SAT, transfected NIH-3T3 cells.

T3 sequence (P14416 1-414 isoform P14416-2): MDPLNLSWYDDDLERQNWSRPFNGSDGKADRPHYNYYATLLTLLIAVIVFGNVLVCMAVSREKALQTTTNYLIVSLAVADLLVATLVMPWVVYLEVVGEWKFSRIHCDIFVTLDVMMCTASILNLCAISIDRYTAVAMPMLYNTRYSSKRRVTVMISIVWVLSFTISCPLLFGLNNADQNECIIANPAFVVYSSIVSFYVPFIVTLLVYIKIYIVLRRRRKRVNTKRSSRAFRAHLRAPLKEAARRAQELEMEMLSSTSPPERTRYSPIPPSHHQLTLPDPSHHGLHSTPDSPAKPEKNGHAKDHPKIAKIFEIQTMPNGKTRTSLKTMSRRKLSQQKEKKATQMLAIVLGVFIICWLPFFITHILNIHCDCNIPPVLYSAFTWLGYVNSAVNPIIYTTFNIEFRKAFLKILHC

Take `CCCCC1CCN(CCCn2c(=O)[nH]c3ccccc32)CC1` [Compound 61KS-19, 1-(3-[4-Butylpiperidino]propyl)-1,3-dihydrobenzimidazol-2-one]: on M1 muscarinic receptor, the “binding efficacy for the M1 receptor subtype” value was “high binding efficacy”, the Emax worked out at 115% and the EC50 is 25.1 nM. Also, the “binding efficacy for the M4 receptor subtype” value at M4 muscarinic receptor is “high binding efficacy”. Further, the Emax at M4 muscarinic receptor (setting [8]) came out at 141%. Also, the EC50 at M4 muscarinic receptor (R-SAT, transfected NIH-3T3 cells, read-out: M4 pEC50 (converted)) was 31.6 nM. In addition, the IC50 in data set [1] was 794 nM. The spontaneous locomotor activity entry in the data set with mice [2] is “reduction of spontaneous locomotor activity”. Further, the amphetamine-induced hyperactivity entry with mice [3] is reported as “reduction of amphetamine-induced hyperactivity”. Moreover, in the data set with mice [4], the scopolamine-induced hyperactivity entry is listed as “reduction of scopolamine-induced hyperactivity”. Moreover, the MK-801-induced hyperactivity result in the data set with mice [5] is given as “reduction of MK-801-induced hyperactivity”. The induction of catalepsy result in the data set on mice [6] (10 mg/kg i.p.) was “failed to induce catalepsy”.
For the molecule `CCCCC1CCN(CCCn2c(=O)oc3cccc(C)c32)CC1` [Compound 86KK25-a, 3-[3-(4-butylpiperidin-1-yl]propyl)-4-methyl-3H-benzooxazol-2-one], on M1 muscarinic receptor, the Emax amounted to 73% and the EC50 was 100 nM. In addition, the Emax at M4 muscarinic receptor (setting [8]) is 36%. For the same molecule, the IC50 in data set [1] was 631 nM.
As to `CCCCC1CC2CCC(C1)N2CCCn1c(=O)sc2ccccc21` (centres unmarked) [Compound 97KS96-2, 3-[3-(3-Butyl-8-aza-bicyclo[3.2.1]oct-8-yl)-propyl]-3H-benzothiazol-2-one], the Emax was found to be 63% at M1 muscarinic receptor and 50% at M4 muscarinic receptor (setting [8]). For the same molecule, the EC50 on M1 muscarinic receptor is 50.1 nM. Further, the IC50 in [1] is 100 nM.
As for `CCCCCCOc1nsnc1C1=CCCN(C)C1` [Xanomeline], the “affinity for dopamine receptors” value in the data set with dopamine receptors was “little or no affinity for dopamine receptors”.
As to `O=C(CCCN1CCC(O)(c2ccc(Cl)cc2)CC1)c1ccc(F)cc1` [haloperidol, reference compound], in the data set on mice [6] (haloperidol 1 mg/kg i.p.), the induction of catalepsy entry is listed as “unlike haloperidol”.
In the case of `Nc1c2c(nc3ccccc13)CCCC2` [tacrine], in data set [7], the “patients with elevated liver transaminases” value is reported as “about 30%”.
